Results taken from ChEMBL document CHEMBL1201862, “PubChem BioAssay data set” (2004).
The source made the active and inactive calls.

What was measured:
[1] = cytotoxicity in OV-90 ovarian cancer cells, dose response, PAX8 inhibitor project, cell-based, plate reader, dry powder, SA8 (AID 743149); assay type: functional
[2] = cytotoxicity in COV434 cells, dose response, cytotoxicity control for PAX8 inhibitor project, cell-based, plate reader, dry powder, SA7 (AID 743145); assay type: functional
Vero = experiment: host cell cytotoxicity of antiviral hits, dose response, cytotoxicity control for West Nile virus antiviral project, secondary assay (AID 1650); assay type: functional; conditions: Chlorocebus sabaeus
Streptococcus = experiment: Group A Streptococcus viability loss, dose response, counter-screen for streptokinase expression inhibitor project, luminescence, BacTiterGlo (AID 1915); assay type: functional, organism-based;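 further: potency for reduction of bacterial viability or growth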
BJ [3] = experiment: cytotoxicity toward BJ-TERT-LT-ST fibroblasts, dose response, cell-based, RAS-independent, luminescence (AID 1935); assay type: functional; conditions: Homo sapiens;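 further: BJ fibroblasts immortalized with TERT plus LT and ST oncogenes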
[4] = NIH:OVCAR-3 ovarian cancer cell cytotoxicity, dose response, PAX8 inhibitor project, plate reader, dry powder samples (AID 743044); assay type: functional, cell-based
[5] = cytotoxicity toward DRD oncogenic fibroblasts, dose response, cell-based, non-viral oncogenic, luminescence (AID 1934); assay type: functional; conditions: Homo sapiens
HEK293 [6] = experiment: SAR Analysis of small molecule inhibitors of both B-cell and T-cell specific antigen receptor-induced NF-kB activation in a HEK-293T cell line using a luminescence assay. [Related pubchem assays (depositor defined):AID435003, AID435022, AID465, AID489019, AID489029]; assay type: functional, cell-based; conditions: Homo sapiens
Paired box protein Pax-8 = Paired box protein Pax-8 (Homo sapiens, UniProt Q06710); experiment: inhibitors of PAX8-driven TPO luciferase reporter, dose response, RMG-I cells, cherry-pick (AID 687027); assay type: functional, cell-based;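 further: luciferase reporter driven by Pax8 target thyroperoxidase promoter measured by SteadyGlo luminescence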
Sequence of Paired box protein Pax-8 (Q06710 whole entry): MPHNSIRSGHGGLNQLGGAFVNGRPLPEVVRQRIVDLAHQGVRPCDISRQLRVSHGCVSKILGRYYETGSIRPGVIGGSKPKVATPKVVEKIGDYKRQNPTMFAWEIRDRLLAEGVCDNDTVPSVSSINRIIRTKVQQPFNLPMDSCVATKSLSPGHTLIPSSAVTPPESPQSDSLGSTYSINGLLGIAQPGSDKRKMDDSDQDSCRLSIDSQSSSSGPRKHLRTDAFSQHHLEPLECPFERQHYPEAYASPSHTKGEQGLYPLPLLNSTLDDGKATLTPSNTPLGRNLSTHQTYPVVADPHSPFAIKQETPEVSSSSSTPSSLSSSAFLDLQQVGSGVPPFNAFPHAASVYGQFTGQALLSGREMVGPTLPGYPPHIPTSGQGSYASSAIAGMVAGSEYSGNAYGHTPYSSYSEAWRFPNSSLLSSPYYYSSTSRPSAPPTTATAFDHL

[7] = target: Type-1 angiotensin II receptor (Homo sapiens, UniProt P30556); experiment: AT1 receptor antagonists, dose response, selectivity assay for APJ receptor antagonist project, cell-based, uHTS hits (AID 463214); assay type: functional;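 further: antagonist potency against angiotensin II stimulated AT1 response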
Sequence of Type-1 angiotensin II receptor (P30556 whole entry): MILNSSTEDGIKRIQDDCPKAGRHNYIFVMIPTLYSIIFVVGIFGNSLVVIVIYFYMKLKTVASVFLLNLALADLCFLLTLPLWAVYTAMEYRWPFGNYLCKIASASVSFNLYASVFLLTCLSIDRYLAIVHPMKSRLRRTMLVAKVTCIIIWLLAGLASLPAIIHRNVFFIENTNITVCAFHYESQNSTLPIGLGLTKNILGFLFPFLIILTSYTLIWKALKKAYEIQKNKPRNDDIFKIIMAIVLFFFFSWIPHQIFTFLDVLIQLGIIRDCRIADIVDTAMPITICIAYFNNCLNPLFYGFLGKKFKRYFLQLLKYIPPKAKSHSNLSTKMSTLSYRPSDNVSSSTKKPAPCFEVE

Jurkat = experiment: SAR Analysis of small molecule inhibitors of both B-cell and T-cell specific antigen receptor-induced NF-kB activation in a Jurkat cell line using a luminescence assay. [Related pubchem assays (depositor defined):AID435003, AID435022, AID465, AID489029]; assay type: functional, cell-based; conditions: Homo sapiens
[8] = PAX5 activity inhibitors, dose response, selectivity assay for PAX8 inhibitor project, cell-based, plate reader, dry powder samples (AID 743047); assay type: functional;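 further: HEK293 cells carrying a Pax5 driven CD19 promoter luciferase reporter; potency of inhibitors that lower reporter luminescence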
[9] = IGROV1 ovarian cancer cell cytotoxicity, dose response, PAX8 inhibitor project, plate reader, dry powder samples (AID 743043); assay type: functional, cell-based; conditions: IGROV-1
[10] = cytotoxicity dependent on PAX8, dose response, cell-based, plate reader, dry powder (AID 743049); assay type: functional
HEK293 [11] = experiment: NOD1 signaling inhibitors, primary screen, cell-based, luminescence, uHTS (AID 1578); assay type: functional; conditions: Homo sapiens
[12] = cytotoxicity in OVCAR4 cells, dose response, cytotoxicity control for PAX8 inhibitor project, cell-based, plate reader, dry powder, SA11 (AID 743150); assay type: functional; conditions: OVCAR-4
[13] = Luminescence-based dose response cell-based high throughput screening assay for cytotoxic compounds using the IEC-6 intestinal epithelial cell line. [Related pubchem assays: 1858 (Summary AID.), 1825 (Counterscreen.), 1907 (Confirmation screen.)]; assay type: functional
Streptokinase A = target: T1, Streptokinase A (Streptococcus pyogenes serotype M1, UniProt P10520); experiment: S. pyogenes streptokinase expression inhibitors, potency, dose response, plasminogen activation absorbance, OD405 (AID 1914); assay type: functional, Streptococcus pyogenes M1 GAS;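 further: secreted streptokinase activity via plasminogen activation per viability signal from cell pellet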
T1 sequence (P10520 whole entry): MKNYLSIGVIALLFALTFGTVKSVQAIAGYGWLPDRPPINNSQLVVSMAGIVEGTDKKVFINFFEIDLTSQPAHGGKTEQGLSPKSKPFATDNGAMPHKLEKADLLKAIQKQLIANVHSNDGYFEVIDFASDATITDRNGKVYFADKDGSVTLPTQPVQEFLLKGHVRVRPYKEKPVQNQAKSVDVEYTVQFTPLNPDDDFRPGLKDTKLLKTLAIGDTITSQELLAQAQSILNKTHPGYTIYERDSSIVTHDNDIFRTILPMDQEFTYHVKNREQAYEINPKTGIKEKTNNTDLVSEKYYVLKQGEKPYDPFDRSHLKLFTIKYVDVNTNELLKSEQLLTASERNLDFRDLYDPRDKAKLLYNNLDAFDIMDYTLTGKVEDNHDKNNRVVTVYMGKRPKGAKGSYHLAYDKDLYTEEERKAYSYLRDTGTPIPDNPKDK

[14] = target: Nucleotide-binding oligomerization domain-containing protein 2 (Homo sapiens, UniProt Q9HC29); experiment: NOD2 signaling inhibitors, cell-based, luminescence, uHTS, HEK293 (AID 1566); assay type: functional
Sequence of Nucleotide-binding oligomerization domain-containing protein 2 (Q9HC29 whole entry, the tested form may be a part): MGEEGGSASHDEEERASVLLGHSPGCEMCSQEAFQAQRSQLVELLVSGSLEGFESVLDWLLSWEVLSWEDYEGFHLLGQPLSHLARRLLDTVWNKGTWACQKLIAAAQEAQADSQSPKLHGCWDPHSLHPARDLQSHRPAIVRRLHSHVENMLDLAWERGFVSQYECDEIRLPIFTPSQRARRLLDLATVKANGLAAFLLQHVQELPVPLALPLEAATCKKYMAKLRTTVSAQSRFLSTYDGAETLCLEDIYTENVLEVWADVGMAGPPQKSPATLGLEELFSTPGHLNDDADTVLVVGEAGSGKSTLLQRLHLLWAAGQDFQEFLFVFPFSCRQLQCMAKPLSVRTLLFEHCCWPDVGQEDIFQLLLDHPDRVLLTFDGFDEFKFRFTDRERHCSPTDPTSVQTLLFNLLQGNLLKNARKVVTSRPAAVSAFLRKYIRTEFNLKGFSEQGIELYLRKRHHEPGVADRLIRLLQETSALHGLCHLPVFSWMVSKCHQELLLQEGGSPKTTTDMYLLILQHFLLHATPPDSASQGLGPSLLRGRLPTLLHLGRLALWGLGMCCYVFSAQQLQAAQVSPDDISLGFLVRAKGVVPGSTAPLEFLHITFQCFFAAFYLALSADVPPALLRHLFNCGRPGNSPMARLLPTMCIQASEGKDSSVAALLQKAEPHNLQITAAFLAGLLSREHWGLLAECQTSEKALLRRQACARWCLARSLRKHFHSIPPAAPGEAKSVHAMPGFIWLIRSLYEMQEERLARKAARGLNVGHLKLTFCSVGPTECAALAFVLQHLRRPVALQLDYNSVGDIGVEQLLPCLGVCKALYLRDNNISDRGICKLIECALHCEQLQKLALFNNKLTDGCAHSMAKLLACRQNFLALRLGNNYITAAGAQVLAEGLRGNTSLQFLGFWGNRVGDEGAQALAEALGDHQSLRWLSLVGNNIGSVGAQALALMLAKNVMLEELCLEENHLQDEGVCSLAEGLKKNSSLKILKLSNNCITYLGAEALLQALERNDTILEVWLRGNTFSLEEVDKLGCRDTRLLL

BJ [15] = experiment: cytotoxicity toward BJ-TERT fibroblasts, dose response, cell-based, RAS-independent, luminescence (AID 1933); assay type: functional; conditions: Homo sapiens
HEK293 [16] = experiment: NOD2 signaling inhibitors in MDP-stimulated cells, cell-based, uHTS, luminescence (AID 2001); assay type: functional; conditions: Homo sapiens
Beta-galactosidase = Beta-galactosidase (Escherichia coli, UniProt Q8VNN2); experiment: PubChem AID 485352; assay type: functional
Sequence of Beta-galactosidase (Q8VNN2 whole entry): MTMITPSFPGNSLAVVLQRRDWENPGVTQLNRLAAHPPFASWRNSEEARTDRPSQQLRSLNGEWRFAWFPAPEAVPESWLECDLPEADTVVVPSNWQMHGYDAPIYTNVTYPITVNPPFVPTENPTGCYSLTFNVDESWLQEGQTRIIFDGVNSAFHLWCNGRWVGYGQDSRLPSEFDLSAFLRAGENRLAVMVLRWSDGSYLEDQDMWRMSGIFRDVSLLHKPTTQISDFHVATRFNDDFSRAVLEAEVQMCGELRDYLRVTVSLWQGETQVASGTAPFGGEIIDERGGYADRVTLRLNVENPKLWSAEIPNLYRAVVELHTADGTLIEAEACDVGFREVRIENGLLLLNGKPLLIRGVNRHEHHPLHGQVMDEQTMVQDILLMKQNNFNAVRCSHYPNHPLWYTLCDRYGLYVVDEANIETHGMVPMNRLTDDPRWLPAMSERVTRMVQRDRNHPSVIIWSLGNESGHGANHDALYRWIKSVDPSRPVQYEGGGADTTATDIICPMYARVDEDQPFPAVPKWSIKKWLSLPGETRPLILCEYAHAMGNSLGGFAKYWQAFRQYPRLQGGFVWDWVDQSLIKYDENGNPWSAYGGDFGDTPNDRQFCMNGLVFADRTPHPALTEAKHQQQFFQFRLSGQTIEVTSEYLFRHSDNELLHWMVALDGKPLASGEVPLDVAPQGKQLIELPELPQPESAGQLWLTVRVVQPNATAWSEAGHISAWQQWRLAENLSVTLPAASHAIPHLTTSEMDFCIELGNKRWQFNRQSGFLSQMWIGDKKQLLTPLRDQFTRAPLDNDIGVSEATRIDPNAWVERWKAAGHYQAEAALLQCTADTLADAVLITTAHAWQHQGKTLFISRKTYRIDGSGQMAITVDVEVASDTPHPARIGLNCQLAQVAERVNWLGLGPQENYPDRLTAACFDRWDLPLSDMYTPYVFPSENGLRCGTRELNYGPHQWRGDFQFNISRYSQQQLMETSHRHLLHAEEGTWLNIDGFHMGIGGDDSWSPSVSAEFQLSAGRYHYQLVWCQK

[17] = PAX2 cell-based inhibition, dose response, selectivity assay for PAX8 inhibitor project, plate reader, dry powder samples (AID 743048); assay type: functional;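 further: HEK293 cells carrying a WT1 promoter luciferase reporter driven by expressed Pax2; potency is for inhibition of Pax2 driven reporter signal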
HEK293 [18] = experiment: cells; assay type: functional, cell-based; conditions: Homo sapiens
HEK293 [19] = experiment: cells; assay type: functional, cell-based; conditions: Homo sapiens; remark: listed apart in the source
BJ [20] = experiment: cells; assay type: functional, cell-based; conditions: Homo sapiens
HEK293 [21] = experiment: cells; assay type: functional, cell-based; conditions: Homo sapiens; remark: listed apart in the source
HEK293 [22] = experiment: cytotoxicity in HEK293T NF-kB-Luc cells, SAR follow-up, cytotoxicity control for NF-kB activator project, cell-based, resazurin fluorescence (AID 493251); assay type: functional; conditions: Homo sapiens
BJ [23] = experiment: cytotoxicity toward Ras-transformed BJeLR fibroblasts, dose response, cell-based, alamar blue fluorescence, cherrypicked samples (AID 2631); assay type: functional; conditions: Homo sapiens;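 further: confirmatory dose-response assay in RAS-dependent BJ fibroblasts engineered with TERT, LT and ST, with cytotoxicity read by fluorescence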
[24] = target: Glucose-6-phosphate 1-dehydrogenase (Homo sapiens, UniProt P11413); experiment: human G6PD enzyme inhibitors, dose response, selectivity assay for P. falciparum G6PD inhibitor project, biochemical, fluorescence (AID 504792); assay type: functional
Sequence of Glucose-6-phosphate 1-dehydrogenase (P11413 whole entry): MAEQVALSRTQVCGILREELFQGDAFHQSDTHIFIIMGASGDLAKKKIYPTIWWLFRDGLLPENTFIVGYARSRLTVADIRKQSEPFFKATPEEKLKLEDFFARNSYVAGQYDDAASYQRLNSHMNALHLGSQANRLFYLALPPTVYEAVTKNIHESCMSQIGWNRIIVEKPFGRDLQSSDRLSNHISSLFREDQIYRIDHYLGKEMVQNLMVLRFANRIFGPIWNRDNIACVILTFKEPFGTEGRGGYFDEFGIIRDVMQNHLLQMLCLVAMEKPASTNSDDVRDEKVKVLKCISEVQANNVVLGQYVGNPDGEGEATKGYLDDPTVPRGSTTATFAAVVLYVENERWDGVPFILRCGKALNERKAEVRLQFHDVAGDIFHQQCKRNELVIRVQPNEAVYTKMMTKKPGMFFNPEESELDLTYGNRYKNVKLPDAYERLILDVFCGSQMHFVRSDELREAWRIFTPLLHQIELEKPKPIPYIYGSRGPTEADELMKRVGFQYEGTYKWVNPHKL

[25] = tested on: Streptococcus sp. 'group A'; experiment: growth inhibition of control SK(-) GAS strain, dose response, counter-screen for streptokinase expression inhibitor project, luminescence, kanamycin, BacTiterGlo, confirmation (AID 1900); assay type: functional, organism-based

O=S(=O)(Nc1cccc2cccnc12)c1ccccc1
AC50 [1]: 15.3 µM (active) | AC50 [2]: 19.3 µM (active) | CC50 (Vero): 7.94 µM (active) | EC50 (Streptococcus): 12.3 µM (active) | EC50 (BJ [3]): > 150 µM (not active) | AC50 [4]: 38.9 µM (active) | EC50 [5]: 34 µM (active) | IC50 (HEK293 [6]): 44.8 µM (inactive) | AC50 (Paired box protein Pax-8): 6.46 µM (active) | IC50 [7]: 2.75 µM (active) | IC50 (Jurkat): 0.89 µM (active) | AC50 [8]: 33.2 µM (active) | AC50 [9]: 26.3 µM (active) | AC50 [10]: 20.7 µM (active) | EC50 (HEK293 [11]): > 20 µM (inactive) | AC50 [12]: 21.4 µM (active) | IC50 [13]: 2.08 µM (active) | EC50 (Streptokinase A): > 150 µM (not active) | EC50 [14]: > 20 µM (inactive) | EC50 (BJ [15]): 28.1 µM (active) | IC50 (HEK293 [16]): 1.83 µM (inactive) | EC50 (Beta-galactosidase): > 40 µM (inactive) | AC50 [17]: 32.4 µM (active) | IC50 (HEK293 [18]): > 20 µM (inactive) | IC50 (HEK293 [19]): 2.74 µM (active) | EC50 (BJ [20]): 17.2 µM (active) | IC50 (HEK293 [21]): 11.7 µM (active) | IC50 (HEK293 [22]): > 80 µM (inactive) | EC50 (BJ [23]): 0.572 µM (active) | IC50 [24]: 51.9 µM (inactive) | EC50 [25]: 3.27 µM (active)
